# How the values were obtained:
# late watergrass = assay: Test Example 2: herbicidal activity, application during weed generation under submerged conditions (Table 17, symbol A); format: in vivo, late watergrass (Echinochloa oryzicola); settings: AAH 320 g/ha; application during weed generation, submerged conditions
# Outline: (§1)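 Herbicide emulsion, diluted with water to the chosen amount, is applied onto 4 cm floodwater over alluvial soil where the weeds were co-sown and raised at 25–30° C. Application timing: 1–2 leaves. Assessment: three weeks afterwards.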
# Japanese bulrush = assay: Test Example 2: herbicidal activity, application during weed generation under submerged conditions (Table 17, symbol B); format: in vivo, Japanese bulrush (Schoenoplectus juncoides); settings: AAH 320 g/ha; application during weed generation, submerged conditions
# Outline: as §1
# oval-leafed pondweed = assay: Test Example 2: herbicidal activity, application during weed generation under submerged conditions (Table 17, symbol C); format: in vivo, oval-leafed pondweed (Monochoria vaginalis); settings: AAH 320 g/ha; application during weed generation, submerged conditions
# Outline: as §1
# barnyard grass [1] = assay: Test Example 3: herbicidal effect by foliage application, Wagner pot (Table 18, symbol H); format: in vivo, barnyard grass (Echinochloa crus-galli); settings: 320 g/ha
# Outline: (§2)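 Plants were sown in alluvial soil held under 0.1–0.5 cm standing water and grown 14 days in a greenhouse at 25–30 °C. An emulsifiable formulation, water-diluted to the set dose, was then sprayed onto the foliage, and effects were scored three weeks later using previously defined criteria.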
# Chinese sprangletop = assay: Test Example 3: herbicidal effect by foliage application, Wagner pot (Table 18, symbol D); format: in vivo, chinese sprangletop (Leptochloa chinensis); settings: 320 g/ha
# Outline: as §2
# rice flat sedge = assay: Test Example 3: herbicidal effect by foliage application, Wagner pot (Table 18, symbol E); format: in vivo, rice flat sedge (Cyperus iria); settings: 320 g/ha
# Outline: as §2
# wild oat [2] = assay: Test Example 4: herbicidal effect by soil treatment (Table 19, symbol I); format: in vivo, wild oat (Avena fatua)
# Outline: (§3)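 Herbicidal effect was rated 3 weeks after treatment, using the scoring criteria of an earlier test. The compound, formulated as an emulsion and diluted in water to a set herbicide amount, had been sprayed uniformly on soil over freshly sown seeds. Growth took place in a greenhouse at 25° C. to 30° C.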
# blackgrass [3] = assay: Test Example 4: herbicidal effect by soil treatment (Table 19, symbol J); format: in vivo, blackgrass (Alopecurus myosuroides)
# Outline: as §3
# Italian ryegrass [4] = assay: Test Example 4: herbicidal effect by soil treatment (Table 19, symbol K); format: in vivo, Italian ryegrass (Lolium multiflorum)
# Outline: as §3
# windgrass [5] = assay: Test Example 4: herbicidal effect by soil treatment (Table 19, symbol L); format: in vivo, windgrass (Apera spica-venti)
# Outline: as §3
# chickweed [6] = assay: Test Example 4: herbicidal effect by soil treatment (Table 19, symbol P); format: in vivo, common chickweed (Stellaria media)
# Outline: as §3
# persian speedwell [7] = assay: Test Example 4: herbicidal effect by soil treatment (Table 19, symbol R); format: in vivo, Persian speedwell (Veronica persica)
# Outline: as §3
# southern crabgrass [8] = assay: Test Example 5: herbicidal effect by foliage application, plastic box (Table 20, symbol F); format: in vivo, southern crabgrass (Digitaria ciliaris); settings: foliage application, 320 g/ha
# Outline: (§4)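 Foliar spray test: emulsion formulation diluted in water to a set application rate, sprayed onto 14-day-old plants raised in diluvial soil at 25° C to 30° C under glass. Both herbicidal effect and crop effect rated visually three weeks later.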
# green foxtail [9] = assay: Test Example 5: herbicidal effect by foliage application, plastic box (Table 20, symbol G); format: in vivo, green foxtail (Setaria viridis); settings: foliage application, 320 g/ha
# Outline: as §4
# barnyard grass [10] = assay: Test Example 5: herbicidal effect by foliage application, plastic box (Table 20, symbol H); format: in vivo, barnyard grass (Echinochloa crus-galli); settings: foliage application, 320 g/ha
# Outline: as §4
# wild oat [11] = assay: Test Example 5: herbicidal effect by foliage application, plastic box (Table 20, symbol I); format: in vivo, wild oat (Avena fatua); settings: foliage application, 320 g/ha
# Outline: as §4
# blackgrass [12] = assay: Test Example 5: herbicidal effect by foliage application, plastic box (Table 20, symbol J); format: in vivo, blackgrass (Alopecurus myosuroides); settings: foliage application, 320 g/ha
# Outline: as §4
# Italian ryegrass [13] = assay: Test Example 5: herbicidal effect by foliage application, plastic box (Table 20, symbol K); format: in vivo, Italian ryegrass (Lolium multiflorum); settings: foliage application, 320 g/ha
# Outline: as §4
# windgrass [14] = assay: Test Example 5: herbicidal effect by foliage application, plastic box (Table 20, symbol L); format: in vivo, windgrass (Apera spica-venti); settings: foliage application, 320 g/ha
# Outline: as §4
# velvetleaf [15] = assay: Test Example 5: herbicidal effect by foliage application, plastic box (Table 20, symbol M); format: in vivo, velvetleaf (Abutilon theophrasti); settings: foliage application, 320 g/ha
# Outline: as §4
# redroot pigweed [16] = assay: Test Example 5: herbicidal effect by foliage application, plastic box (Table 20, symbol N); format: in vivo, redroot pigweed (Amaranthus retroflexus); settings: foliage application, 320 g/ha
# Outline: as §4
# lambsquarters [17] = assay: Test Example 5: herbicidal effect by foliage application, plastic box (Table 20, symbol O); format: in vivo, lambsquarters (Chenopodium album); settings: foliage application, 320 g/ha
# Outline: as §4
# chickweed [18] = assay: Test Example 5: herbicidal effect by foliage application, plastic box (Table 20, symbol P); format: in vivo, common chickweed (Stellaria media); settings: foliage application, 320 g/ha
# Outline: as §4
# persian speedwell [19] = assay: Test Example 5: herbicidal effect by foliage application, plastic box (Table 20, symbol R); format: in vivo, Persian speedwell (Veronica persica); settings: foliage application, 320 g/ha
# Outline: as §4
# southern crabgrass [20] = assay: Test Example 4: herbicidal effect by soil treatment (Table 19, symbol F); format: in vivo, southern crabgrass (Digitaria ciliaris); settings: 320 g/ha
# Outline: as §3
# green foxtail [21] = assay: Test Example 4: herbicidal effect by soil treatment (Table 19, symbol G); format: in vivo, green foxtail (Setaria viridis); settings: 320 g/ha
# Outline: as §3
# barnyard grass [22] = assay: Test Example 4: herbicidal effect by soil treatment (Table 19, symbol H); format: in vivo, barnyard grass (Echinochloa crus-galli); settings: 320 g/ha
# Outline: as §3
# velvetleaf [23] = assay: Test Example 4: herbicidal effect by soil treatment (Table 19, symbol M); format: in vivo, velvetleaf (Abutilon theophrasti); settings: 320 g/ha
# Outline: as §3
# redroot pigweed [24] = assay: Test Example 4: herbicidal effect by soil treatment (Table 19, symbol N); format: in vivo, redroot pigweed (Amaranthus retroflexus); settings: 320 g/ha
# Outline: as §3
# lambsquarters [25] = assay: Test Example 4: herbicidal effect by soil treatment (Table 19, symbol O); format: in vivo, lambsquarters (Chenopodium album); settings: 320 g/ha
# Outline: as §3
# [26] = amount of applied herbicide 320 g/ha
# [27] = evaluated three weeks after application
smiles,measurement,setting,value
CCCC(=O)Oc1c(C)nn(C)c(=O)c1-c1c(-c2ccc(OC(F)(F)F)cc2)sc2ccccc12 [1-032],"herbicidal effect rating, A: late watergrass",late watergrass,0 (Herbicidal rate of 5% or less (almost no effect))
same,"herbicidal effect rating, B: Japanese bulrush",Japanese bulrush,1 (Herbicidal rate of 5% or more and less than 20%)
same,"herbicidal effect rating, C: oval-leafed pondweed",oval-leafed pondweed,3 (Herbicidal rate of 40% or more and less than 70%)
same,"herbicidal effect on H (barnyard grass), rating 0-5",barnyard grass [1],4 (Herbicidal rate of 70% or more and less than 90%)
same,"herbicidal effect on D (Chinese sprangletop), rating 0-5",Chinese sprangletop,0 (Herbicidal rate of 5% or less (almost no effect))
same,"herbicidal effect on E (rice flat sedge), rating 0-5",rice flat sedge,5 (Herbicidal rate of 90% or more (almost completely withered))
same,"herbicidal effect rating, I: wild oat",wild oat [2]; [26],0 (Herbicidal rate of 5% or less (almost no effect))
same,"herbicidal effect rating, J: blackgrass",blackgrass [3]; [26],0 (Herbicidal rate of 5% or less (almost no effect))
same,"herbicidal effect rating, K: Italian ryegrass",Italian ryegrass [4]; [26],4 (Herbicidal rate of 70% or more and less than 90%)
same,"herbicidal effect rating, L: windgrass",windgrass [5]; [26],0 (Herbicidal rate of 5% or less (almost no effect))
same,"herbicidal effect rating, P: chickweed",chickweed [6]; [26],3 (Herbicidal rate of 40% or more and less than 70%)
same,"herbicidal effect rating, R: persian speedwell",persian speedwell [7]; [26],5 (Herbicidal rate of 90% or more (almost completely withered))
same,"herbicidal effect grade, F: southern crabgrass",southern crabgrass [8]; three weeks after application,0 (Herbicidal rate of 5% or less (almost no effect))
same,"herbicidal effect grade, G: green foxtail",green foxtail [9]; three weeks after application,4 (Herbicidal rate of 70% or more and less than 90%)
same,"herbicidal effect grade, H: barnyard grass",barnyard grass [10]; three weeks after application,3 (Herbicidal rate of 40% or more and less than 70%)
same,"herbicidal effect grade, I: wild oat",wild oat [11]; three weeks after application,0 (Herbicidal rate of 5% or less (almost no effect))
same,"herbicidal effect grade, J: blackgrass",blackgrass [12]; three weeks after application,2 (Herbicidal rate of 20% or more and less than 40%)
same,"herbicidal effect grade, K: Italian ryegrass",Italian ryegrass [13]; three weeks after application,3 (Herbicidal rate of 40% or more and less than 70%)
same,"herbicidal effect grade, L: windgrass",windgrass [14]; three weeks after application,0 (Herbicidal rate of 5% or less (almost no effect))
same,"herbicidal effect grade, M: velvetleaf",velvetleaf [15]; three weeks after application,5 (Herbicidal rate of 90% or more (almost completely withered))
same,"herbicidal effect grade, N: redroot pigweed",redroot pigweed [16]; three weeks after application,4 (Herbicidal rate of 70% or more and less than 90%)
same,"herbicidal effect grade, O: lambsquarters",lambsquarters [17]; three weeks after application,5 (Herbicidal rate of 90% or more (almost completely withered))
same,"herbicidal effect grade, P: chickweed",chickweed [18]; three weeks after application,5 (Herbicidal rate of 90% or more (almost completely withered))
same,"herbicidal effect grade, R: persian speedwell",persian speedwell [19]; three weeks after application,5 (Herbicidal rate of 90% or more (almost completely withered))
COCCOCOc1c(C)nn(C)c(=O)c1-c1c(-c2ccc(OCC#N)cc2)sc2ccc(F)cc12 [2-067],"herbicidal effect rating, A: late watergrass",late watergrass,2 (Herbicidal rate of 20% or more and less than 40%)
same,"herbicidal effect rating, B: Japanese bulrush",Japanese bulrush,0 (Herbicidal rate of 5% or less (almost no effect))
same,"herbicidal effect rating, C: oval-leafed pondweed",oval-leafed pondweed,0 (Herbicidal rate of 5% or less (almost no effect))
same,"herbicidal effect on H (barnyard grass), rating 0-5",barnyard grass [1],4 (Herbicidal rate of 70% or more and less than 90%)
same,"herbicidal effect on D (Chinese sprangletop), rating 0-5",Chinese sprangletop,5 (Herbicidal rate of 90% or more (almost completely withered))
same,"herbicidal effect on E (rice flat sedge), rating 0-5",rice flat sedge,3 (Herbicidal rate of 40% or more and less than 70%)
same,"herbicidal effect rating, F: southern crabgrass",southern crabgrass [20],0 (Herbicidal rate of 5% or less (almost no effect))
same,"herbicidal effect rating, G: green foxtail",green foxtail [21],0 (Herbicidal rate of 5% or less (almost no effect))
same,"herbicidal effect rating, H: barnyard grass",barnyard grass [22],0 (Herbicidal rate of 5% or less (almost no effect))
same,"herbicidal effect rating, I: wild oat",wild oat [2]; 320 g/ha,0 (Herbicidal rate of 5% or less (almost no effect))
same,"herbicidal effect rating, J: blackgrass",blackgrass [3]; 320 g/ha,0 (Herbicidal rate of 5% or less (almost no effect))
same,"herbicidal effect rating, K: Italian ryegrass",Italian ryegrass [4]; 320 g/ha,0 (Herbicidal rate of 5% or less (almost no effect))
same,"herbicidal effect rating, L: windgrass",windgrass [5]; 320 g/ha,0 (Herbicidal rate of 5% or less (almost no effect))
same,"herbicidal effect rating, M: velvetleaf",velvetleaf [23],0 (Herbicidal rate of 5% or less (almost no effect))
same,"herbicidal effect rating, N: redroot pigweed",redroot pigweed [24],3 (Herbicidal rate of 40% or more and less than 70%)
same,"herbicidal effect rating, O: lambsquarters",lambsquarters [25],3 (Herbicidal rate of 40% or more and less than 70%)
same,"herbicidal effect rating, P: chickweed",chickweed [6]; 320 g/ha,0 (Herbicidal rate of 5% or less (almost no effect))
same,"herbicidal effect rating, R: persian speedwell",persian speedwell [7]; 320 g/ha,3 (Herbicidal rate of 40% or more and less than 70%)
same,herbicidal effect on F: southern crabgrass,southern crabgrass [8]; [27],3 (Herbicidal rate of 40% or more and less than 70%)
same,herbicidal effect on G: green foxtail,green foxtail [9]; [27],1 (Herbicidal rate of 5% or more and less than 20%)
same,herbicidal effect on H: barnyard grass,barnyard grass [10]; [27],1 (Herbicidal rate of 5% or more and less than 20%)
same,herbicidal effect on I: wild oat,wild oat [11]; [27],0 (Herbicidal rate of 5% or less (almost no effect))
same,herbicidal effect on J: blackgrass,blackgrass [12]; [27],0 (Herbicidal rate of 5% or less (almost no effect))
same,herbicidal effect on K: Italian ryegrass,Italian ryegrass [13]; [27],0 (Herbicidal rate of 5% or less (almost no effect))
same,herbicidal effect on L: windgrass,windgrass [14]; [27],0 (Herbicidal rate of 5% or less (almost no effect))
same,herbicidal effect on M: velvetleaf,velvetleaf [15]; [27],2 (Herbicidal rate of 20% or more and less than 40%)
same,herbicidal effect on N: redroot pigweed,redroot pigweed [16]; [27],5 (Herbicidal rate of 90% or more (almost completely withered))
same,herbicidal effect on O: lambsquarters,lambsquarters [17]; [27],4 (Herbicidal rate of 70% or more and less than 90%)
same,herbicidal effect on P: chickweed,chickweed [18]; [27],4 (Herbicidal rate of 70% or more and less than 90%)
same,herbicidal effect on R: persian speedwell,persian speedwell [19]; [27],5 (Herbicidal rate of 90% or more (almost completely withered))

# — patent publication US20230085307A1, “PYRIDAZINONE COMPOUND AND HERBICIDE” (NISSAN CHEMICAL CORPORATION, priority 2019, published 2023)
